Assay results published in PubChem BioAssay AID1259407 (Chemical Carcinogenesis Research Information System (CCRIS), 2018).
Calls of active or inactive are those of the source. The rule behind the calls is not given here.

Tested on: CCRIS mutagenicity, Ames/micronucleus/aberration tests
Assay: CCRIS mutagenicity studies
[1] = Test System: AMES SALMONELLA TYPHIMURIUM, Strain/Indicator: TA98, Metabolic Activation: RAT, LIVER, S-9, Method: STANDARD PLATE
[2] = Test System: AMES SALMONELLA TYPHIMURIUM, Strain/Indicator: TA98, Metabolic Activation: NONE, Method: STANDARD PLATE
[3] = Test System: AMES SALMONELLA TYPHIMURIUM, Strain/Indicator: TA98, Metabolic Activation: RAT, LIVER, S-9, AROCLOR 1254, Method: STANDARD PLATE
[4] = Test System: AMES SALMONELLA TYPHIMURIUM, Strain/Indicator: TA100, Metabolic Activation: NONE, Method: STANDARD PLATE
[5] = Test System: AMES SALMONELLA TYPHIMURIUM, Strain/Indicator: TA100, Metabolic Activation: RAT, LIVER, S-9, AROCLOR 1254, Method: STANDARD PLATE

CC(=O)Nc1nc2c3cccnc3cc(C)c2n1C
mutagenic call (Test System: AMES SALMONELLA TYPHIMURIUM, Strain/Indicator: TA98(1,8-DNP6), Metabolic Activation: RAT, LIVER, S-9, Method: STANDARD PLATE): inactive; negative
mutagenic call (Test System: AMES SALMONELLA TYPHIMURIUM, Strain/Indicator: TA98(NR), Metabolic Activation: RAT, LIVER, S-9, Method: STANDARD PLATE): active; positive
mutagenic call [1]: active; positive
mutagenic call (Test System: AMES SALMONELLA TYPHIMURIUM, Strain/Indicator: TA98, Method: STANDARD PLATE): active; positive

CC(=O)CCCCn1c(=O)c2c(ncn2C)n(C)c1=O
mutagenic call (End Point: IN VITRO CHROMOSOMAL ABERRATIONS, Test System: HUMAN PERIPHERAL BLOOD LYMPHOCYTES, Metabolic Activation: NONE): active; positive (structural changes)
mutagenic call (End Point: IN VITRO CHROMOSOMAL ABERRATIONS, Test System: V79 CELLS, Metabolic Activation: NONE): active; positive (structural changes)
mutagenic call (End Point: IN VITRO MICRONUCLEUS, Test System: HUMAN PERIPHERAL BLOOD LYMPHOCYTES, Metabolic Activation: NONE): active; positive
mutagenic call (End Point: IN VITRO MICRONUCLEUS, Test System: V79 CELLS, Metabolic Activation: NONE): active; positive
mutagenic call (Test System: CHINESE HAMSTER V-79, Strain/Indicator: V-79 (HGPRT)/6-THIOGUANINE, Metabolic Activation: NONE): inactive; negative
mutagenic call (Test System: CHINESE HAMSTER V-79, Strain/Indicator: V-79 (HGPRT)/6-THIOGUANINE, Metabolic Activation: S-9): inactive; negative

Cc1cc2nc3ccc(=[N+](C)C)cc-3sc2cc1N
mutagenic call (Test System: AMES SALMONELLA TYPHIMURIUM, Strain/Indicator: TA97A, Metabolic Activation: NONE, Method: STANDARD PLATE): active; positive
mutagenic call (Test System: AMES SALMONELLA TYPHIMURIUM, Strain/Indicator: TA97A, Metabolic Activation: RAT, LIVER, S-9, AROCLOR 1254, Method: STANDARD PLATE): active; positive
mutagenic call [2]: inactive; negative
mutagenic call [3]: active; positive
mutagenic call [4]: inactive; negative
mutagenic call [5]: active; positive
mutagenic call (Test System: AMES SALMONELLA TYPHIMURIUM, Strain/Indicator: TA102, Metabolic Activation: NONE, Method: STANDARD PLATE): inactive; negative
mutagenic call (Test System: AMES SALMONELLA TYPHIMURIUM, Strain/Indicator: TA102, Metabolic Activation: RAT, LIVER, S-9, AROCLOR 1254, Method: STANDARD PLATE): active; positive

NC(=O)N/N=C/c1ccco1
mutagenic call (Test System: E. COLI, Strain/Indicator: WP2 UVRA, Metabolic Activation: NONE, Method: SPOT): active; positive

[Cl][Sn]([Cl])([c]1ccccc1)[c]1ccccc1
mutagenic call (Test System: AMES SALMONELLA TYPHIMURIUM, Strain/Indicator: TA98, Metabolic Activation: NONE, Method: SUSPENSION/PLATE): inactive; negative
mutagenic call (Test System: AMES SALMONELLA TYPHIMURIUM, Strain/Indicator: TA100, Metabolic Activation: NONE, Method: SUSPENSION/PLATE): inactive; negative

C[C@H]1CCC[C@H](O)CCCCCc2cc(O)cc(O)c2C(=O)O1
mutagenic call [2]: inactive; negative
mutagenic call [1]: inactive; negative
mutagenic call [4]: inactive; negative; toxicity at 1000 ug/plate
mutagenic call (Test System: AMES SALMONELLA TYPHIMURIUM, Strain/Indicator: TA100, Metabolic Activation: RAT, LIVER, S-9, Method: STANDARD PLATE): inactive; negative
mutagenic call (Test System: AMES SALMONELLA TYPHIMURIUM, Strain/Indicator: TA1535, Metabolic Activation: NONE, Method: STANDARD PLATE): inactive; negative
mutagenic call (Test System: AMES SALMONELLA TYPHIMURIUM, Strain/Indicator: TA1535, Metabolic Activation: RAT, LIVER, S-9, Method: STANDARD PLATE): inactive; negative
mutagenic call (Test System: AMES SALMONELLA TYPHIMURIUM, Strain/Indicator: TA1537, Metabolic Activation: NONE, Method: STANDARD PLATE): inactive; negative; toxicity at 1000 ug/plate
mutagenic call (Test System: AMES SALMONELLA TYPHIMURIUM, Strain/Indicator: TA1537, Metabolic Activation: RAT, LIVER, S-9, Method: STANDARD PLATE): inactive; negative; toxicity at 1000 ug/plate
mutagenic call (Test System: AMES SALMONELLA TYPHIMURIUM, Strain/Indicator: TA1538, Metabolic Activation: NONE, Method: STANDARD PLATE): inactive; negative
mutagenic call (Test System: AMES SALMONELLA TYPHIMURIUM, Strain/Indicator: TA1538, Metabolic Activation: RAT, LIVER, S-9, Method: STANDARD PLATE): inactive; negative; toxicity at 1000 ug/plate

C=CC(Cl)CCl (stereo not drawn)
mutagenic call (Test System: AMES SALMONELLA TYPHIMURIUM, Strain/Indicator: TA102, Metabolic Activation: RAT LIVER S-9, PHENOBARBITAL AND 5,6-BENZOFLAVONE, Method: STANDARD PLATE): inactive; negative
mutagenic call (Test System: AMES SALMONELLA TYPHIMURIUM, Strain/Indicator: TA2638, Metabolic Activation: RAT LIVER S-9, PHENOBARBITAL AND 5,6-BENZOFLAVONE, Method: STANDARD PLATE): inactive; negative
mutagenic call (Test System: E. COLI, Strain/Indicator: WP2 (PKM101), Metabolic Activation: RAT LIVER S-9, PHENOBARBITAL AND 5,6-BENZOFLAVONE, Method: STANDARD PLATE): inactive; negative
mutagenic call (Test System: E. COLI, Strain/Indicator: WP2 UVRA (PKM101), Metabolic Activation: RAT LIVER S-9, PHENOBARBITAL AND 5,6-BENZOFLAVONE, Method: STANDARD PLATE): inactive; negative

CC(=O)Nc1ccc(N=Nc2ccc(N(C)C)cc2)cc1
mutagenic call (Test System: AMES SALMONELLA TYPHIMURIUM, Strain/Indicator: TA98, Metabolic Activation: RAT, LIVER, S-9, POLYCHLORINATED BIPHENYLS, Method: PREINCUBATION): active; positive
mutagenic call (Test System: AMES SALMONELLA TYPHIMURIUM, Strain/Indicator: TA100, Metabolic Activation: RAT, LIVER, S-9, POLYCHLORINATED BIPHENYLS, Method: PREINCUBATION): inactive; negative

Nc1ccc(Cl)c(Cl)c1Cl
mutagenic call [2]: inactive; negative
mutagenic call [3]: inactive; negative
mutagenic call [4]: inactive; negative
mutagenic call [5]: inactive; negative

O[C@H]1[C@H]2O[C@H]2c2ccc3c(ccc4ccccc43)c2[C@@H]1O
mutagenic call (Test System: AMES SALMONELLA TYPHIMURIUM, Strain/Indicator: TA98, Metabolic Activation: NONE, Method: PREINCUBATION): active; positive
mutagenic call (Test System: CHINESE HAMSTER V-79, Strain/Indicator: V-79/6-THIOGUANINE, Metabolic Activation: NONE): active; positive
